# pKd: −log10 of the molar value.
# Molecular target: STAT3 (Homo sapiens, UniProt P40763)
# Assay: microscale thermophoresis (MST) with His-tag-labelled purchased STAT3 protein (ACROBiosystems ST3-H5149)
# Type: binding
# Sequence of STAT3 (P40763 2-770): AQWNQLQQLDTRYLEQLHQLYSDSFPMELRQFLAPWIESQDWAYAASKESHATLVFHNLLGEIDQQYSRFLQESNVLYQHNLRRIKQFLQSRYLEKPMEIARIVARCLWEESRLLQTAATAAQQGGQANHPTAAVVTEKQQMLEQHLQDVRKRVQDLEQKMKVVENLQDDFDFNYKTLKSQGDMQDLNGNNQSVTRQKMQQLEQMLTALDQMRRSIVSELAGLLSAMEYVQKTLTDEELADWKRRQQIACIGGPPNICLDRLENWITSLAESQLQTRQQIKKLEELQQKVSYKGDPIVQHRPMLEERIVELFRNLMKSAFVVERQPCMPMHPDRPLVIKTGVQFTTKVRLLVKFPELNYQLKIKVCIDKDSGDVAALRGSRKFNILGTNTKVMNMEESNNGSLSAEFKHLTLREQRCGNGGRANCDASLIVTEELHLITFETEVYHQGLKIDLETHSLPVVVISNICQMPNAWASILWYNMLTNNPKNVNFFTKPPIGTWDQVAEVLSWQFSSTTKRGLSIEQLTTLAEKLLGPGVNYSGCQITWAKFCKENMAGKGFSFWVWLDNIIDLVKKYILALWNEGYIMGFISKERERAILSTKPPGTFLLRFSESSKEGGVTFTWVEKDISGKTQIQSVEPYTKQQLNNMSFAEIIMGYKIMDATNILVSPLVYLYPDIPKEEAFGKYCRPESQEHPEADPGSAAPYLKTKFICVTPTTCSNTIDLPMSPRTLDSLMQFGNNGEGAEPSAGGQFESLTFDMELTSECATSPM
compound,measurement,value
"COc1ccc(/C=C/C(=O)c2ccc(OC)cc2OC)cc1 [TEC, 2', 4, 4'-trimethoxychalcone]",pKd,5.01
